From article PMC12146708 (Proceedings of the National Academy of Sciences of the …, 2025)

Molecular target: human Nav1.8 (Homo sapiens, UniProt Q9Y5Y9)
Test: whole-cell manual patch clamp dose-response, […] °C
Format: cell-based

Chain of human Nav1.8 (Q9Y5Y9 whole entry): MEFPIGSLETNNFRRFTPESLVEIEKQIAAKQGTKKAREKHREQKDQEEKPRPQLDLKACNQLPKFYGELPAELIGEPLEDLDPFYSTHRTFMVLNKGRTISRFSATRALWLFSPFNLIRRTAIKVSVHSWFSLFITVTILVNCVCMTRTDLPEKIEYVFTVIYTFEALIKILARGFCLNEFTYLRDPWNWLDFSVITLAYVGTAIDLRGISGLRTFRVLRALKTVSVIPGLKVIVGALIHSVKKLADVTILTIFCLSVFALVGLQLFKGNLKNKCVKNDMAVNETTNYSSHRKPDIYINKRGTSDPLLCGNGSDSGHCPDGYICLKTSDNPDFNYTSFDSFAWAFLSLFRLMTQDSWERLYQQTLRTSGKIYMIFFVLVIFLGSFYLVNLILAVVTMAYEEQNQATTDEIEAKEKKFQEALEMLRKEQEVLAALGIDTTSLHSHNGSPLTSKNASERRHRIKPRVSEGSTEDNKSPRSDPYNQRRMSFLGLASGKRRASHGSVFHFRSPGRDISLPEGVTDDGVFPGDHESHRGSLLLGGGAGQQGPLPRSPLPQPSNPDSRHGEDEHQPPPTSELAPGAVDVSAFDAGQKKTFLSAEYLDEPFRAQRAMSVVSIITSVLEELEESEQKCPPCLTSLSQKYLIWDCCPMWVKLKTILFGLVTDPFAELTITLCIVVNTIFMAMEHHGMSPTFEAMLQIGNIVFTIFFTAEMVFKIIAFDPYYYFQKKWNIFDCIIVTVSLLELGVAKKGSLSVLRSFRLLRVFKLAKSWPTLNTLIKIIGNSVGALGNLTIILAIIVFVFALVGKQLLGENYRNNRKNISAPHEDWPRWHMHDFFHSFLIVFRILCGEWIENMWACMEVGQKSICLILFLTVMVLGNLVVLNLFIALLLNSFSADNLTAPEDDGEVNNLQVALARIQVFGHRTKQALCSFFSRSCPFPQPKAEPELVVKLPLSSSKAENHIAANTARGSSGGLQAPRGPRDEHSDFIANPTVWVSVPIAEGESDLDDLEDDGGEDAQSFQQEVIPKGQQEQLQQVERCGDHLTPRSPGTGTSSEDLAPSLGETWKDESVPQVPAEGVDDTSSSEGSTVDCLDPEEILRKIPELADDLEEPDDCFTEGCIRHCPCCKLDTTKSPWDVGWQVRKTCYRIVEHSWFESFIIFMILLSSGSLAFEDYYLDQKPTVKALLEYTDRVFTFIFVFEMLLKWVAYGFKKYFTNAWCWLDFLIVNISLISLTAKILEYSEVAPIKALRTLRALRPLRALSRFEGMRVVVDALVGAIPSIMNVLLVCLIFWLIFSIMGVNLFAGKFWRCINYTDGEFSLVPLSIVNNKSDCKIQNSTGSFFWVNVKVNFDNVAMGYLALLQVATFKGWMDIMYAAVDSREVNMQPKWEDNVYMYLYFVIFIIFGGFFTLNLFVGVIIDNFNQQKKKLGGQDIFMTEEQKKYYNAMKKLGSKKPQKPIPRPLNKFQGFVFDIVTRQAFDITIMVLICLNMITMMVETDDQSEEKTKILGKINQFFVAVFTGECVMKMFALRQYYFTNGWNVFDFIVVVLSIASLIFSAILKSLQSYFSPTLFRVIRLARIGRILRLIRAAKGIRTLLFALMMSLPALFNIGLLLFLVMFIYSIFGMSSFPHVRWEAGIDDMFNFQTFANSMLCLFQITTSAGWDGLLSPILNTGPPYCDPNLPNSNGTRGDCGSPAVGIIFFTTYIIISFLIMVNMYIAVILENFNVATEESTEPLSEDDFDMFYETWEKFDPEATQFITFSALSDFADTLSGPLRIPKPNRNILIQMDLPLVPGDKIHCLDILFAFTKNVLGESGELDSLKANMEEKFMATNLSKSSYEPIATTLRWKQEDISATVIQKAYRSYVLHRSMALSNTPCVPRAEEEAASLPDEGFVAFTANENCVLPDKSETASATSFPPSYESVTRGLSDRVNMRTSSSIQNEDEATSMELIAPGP
Chain of human Nav1.8 (Q9NY72 23-215 partner): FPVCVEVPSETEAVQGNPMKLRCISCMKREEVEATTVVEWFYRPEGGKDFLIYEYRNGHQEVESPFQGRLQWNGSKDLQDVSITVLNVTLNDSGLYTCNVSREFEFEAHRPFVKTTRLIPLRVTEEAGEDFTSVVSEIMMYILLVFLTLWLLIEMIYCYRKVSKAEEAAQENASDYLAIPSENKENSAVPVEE

`COc1c([C@H]2[C@H](C(=O)Nc3ccnc(C(N)=O)c3)O[C@@](C)(C(F)(F)F)[C@H]2C)ccc(F)c1F` [VX-548] showed a Kd of 0.072 nM.
